Laboratory results published in patent publication US20120149708A1, “MODULATORS OF VIRAL TRANSCRIPTION, AND METHODS AND COMPOSITIONS THEREWITH” (George Mason University, priority 2010, published 2012).

Key:
[1] = test system: 3′TAR and 5′TAR microRNA; assay: Poly-A RT-PCR of TAR microRNA in ACH2 cells; format: cell-based, HIV-1; conditions: CR8#13 100 nm, 48 hrs
Experimental: RNA was extracted 48 hrs-post drug treatment. 500 ng of RNA from the microRNA-enriched fraction was used to generate cDNA using the Quantimir kit (SBI). RT reactions are performed followed by PCR in which a universal reverse primer is provided by the manufacturer. Specific microRNA forward primers are identical in sequence to the microRNA of interest. PCR products corresponding to the amplified microRNAs were resolved in a 3.5% (w/v) agarose gel. The PCR products are at around 67 bp as compared with the Fermentas 1 kb DNA Plus Ladder. Increased amounts of 3′ and 5′ TAR microRNA were observed post drug treatment.
For poly-A RT-PCR detection of microRNAs, 500 ng of RNA from the microRNA-enriched fraction was used to generate cDNA using the Quantimir kit (SBI) according to the manufacturer's protocol. Briefly, small RNA species are poly-adenylated and then reverse transcription reactions are performed with a company-provided RT primer. For PCR, a universal reverse primer is provided by the manufacturer. Specific microRNA forward primers are identical in sequence to the microRNA of interest. PCR products corresponding to the amplified microRNAs were separated in a 3.5% (w/v) agarose gel and quantified using the Kodak 1D software. […]

[2] = test system: Jurkat T-cells (uninfected); assay: Cell viability by trypan blue exclusion, 48 hours; format: cell-based
Experimental: (§1) TZM-bl cell lines were grown in Dulbecco's modified Eagle's medium supplemented with fetal bovine serum (FBS) (10%, v/v), 2 mM L-glutamine, and antibiotics (penicillin 100 U/ml, streptomycin […]) (cDMEM). HCT116 WT and HCT116 Dicer−/−cell lines were grown in McCoy's medium supplemented with FBS (10%, v/v), 2mM L-glutamine, and antibiotics (penicillin 100 U/ml, streptomycin […]). CEM, ACH2, Jurkat and U937 cells were grown in RPMI 1640 supplemented with FBS, L-glutamine, and antibiotics (penicillin 100 U/ml, streptomycin […]). All cell lines were maintained at 37° C. in 5% (v/v) CO2. […]
(§2) In brief, the inhibition studies were carried out as follows. HIV-1 infected cells ACH2, J1.1, OM10.1, U1 and uninfected CEM, Jurkat T-cells, and U937 were cultured in media. The appropriate inhibitor was added at a concentration of 10 μM. Cells were treated for 48 hours and cell viability was determined using trypan blue exclusion method. Results of such a screen for 19 inhibitors is shown in Table 1 where percent dead cells are indicated each drug tested.
(§3) Again HIV-1 infected and uninfected cells were treated with eighteen Formula I compounds at a drug concentration of 50 nm. Forty-eight hours after treatment, cytotoxicity was determined by trypan blue dye exclusion. Percent inhibition was calculated after obtaining the cell density for each well of the tissue culture plate at the end of 48 hrs.

[3] = test system: ACH2 cells (HIV-1 infected); assay: Cell viability by trypan blue exclusion, 48 hours; format: cell-based; conditions: HIV-1 infected
Experimental: as §1, §2, §3

[4] = test system: HIV-1 infected and uninfected cells; assay: Classification of inhibitors by effect on viability of infected versus uninfected cells; format: cell-based; conditions: high
From the text: The inhibitors were classified into three categories: high, moderate or poor, according to their effect on cellular viability in both HIV-1 infected and uninfected cells. Among the compounds tested in this study, CR8, a purine analog bearing a 2-pyridyl group para to the phenyl ring position 6 of the purine was the most promising drug candidate that killed HIV-1 infected cells, while having little or no effect on the death of uninfected cells.

[5] = test system: uninfected CEM, Jurkat T-cells, and U937 cells; assay: MTT assay, uninfected cells; format: cell-based
Experimental: FIGS. 1 and 2 show screening results of CR8 derivatives on Tat-dependent transcription HIV-1 LTR. […] TZM-bl cells were transfected with 1 ug of Tat and treated the next day with DMSO, or the indicated CR8 derivative compounds at 50 nm. 48 hrs-post drug treatment, luciferase activity of the firefly luciferase was measured with the BrightGlo Luciferase Assay and luminescence was read from a 96 well plate on an EG&G Berthold luminometer. Assays were performed in triplicate, average and standard deviations are shown.
Quantitative MTT assays were performed (FIG. 2), to further validate the cell growth inhibitory activity of certain Formula I compounds. In this study, cultured, infected ACH2, J1.1, OM10.1, U1 and uninfected CEM, Jurkat T-cells, and U937 cells were brought in contact with Formula I compounds CR8, MRT-033, and BJFP1154 (CR8#13). Cell growth inhibition study was performed at two different concentrations of the inventive compounds, a low concentration of 50 nm, and high concentration of 10 μM.

[6] = test system: CIITA, IL-8, CAD, MCL-1, Cyclin D1, and PBX-1; format: cell-based
Experimental: 293T cells were treated with three different concentrations of CR8#13 (20 nm, 50 nm, and 200 nm). Cells were processed 48 hrs-post treatment for RT-PCR. Effector cdk9 genes such as CIITA, IL-8, CAD, MCL-1, Cyclin D1, and PBX-1 were used in the RT-PCR.
For mRNA analysis of cdk9 related genes following drug treatments, total RNA was isolated from cells using Trizol (Invitrogen) according to the manufacturer's protocol. A total of 1 μg of RNA from the RNA fraction was treated with 0.25mg/ml DNase I for 60 min, followed by heat inactivation at 65° C. for 15 min. A total of 1 μg of total RNA was used to generate cDNA with the iScript cDNA Synthesis kit (Bio-Rad) using oligo-dT reverse primers.
A determination whether inhibition cdk9 by compounds of the present invention altered the responsiveness of cdk9 dependent cellular genes, was made by the present inventor by testing the effect of CR8#13 (BJFP1154), of viral transcriptional activity utilizing a known set of cellular and viral genes.

| SMILES | 5′TAR microRNA levels [1] | Inhibition Percentage Jurkat ([2]; 50 nM, 48 hrs) | Inhibition Percentage ACH2 ([3]; 50 nM, 48 hrs) | Selectivity ([4]; 50 nM, moderate or poor) | death of uninfected cells (MTT) ([5]; high concentration of 10 μM) | transcription of cdk9 responsive genes [6] | inhibition at 10 µM ([2]; Homo sapiens, Jurkat, 10 μM, 48 hours, read-out: % Inhibition (percent dead cells) Jurkat) [%] | inhibition at 10 µM ([3]; Human immunodeficiency virus 1, ACH-2, 48 h, 10 μM, 48 hours, read-out: % Inhibition (percent dead cells) ACH2) [%] | Selectivity ([4]; 10 μM, moderate or poor by effect on viability of infected and uninfected cells) | cell inhibition of uninfected cells (MTT) ([5]; 50 nm and 10 μM) |
| --- | --- | --- | --- | --- | --- | --- | --- | --- | --- | --- |
| CC(C)c1cnn2c(NCc3ccc(-c4ccccn4)cc3)nc(NC[C@H](O)CO)nc12.O=C(O)/C=C/C(=O)O [BJFP1154] | increase in the 5′TAR microRNA levels | − (1-5%) | − (1-5%) | Poor | marginal, if any death of uninfected cells | did not inhibit transcription of genes that are cdk9 responsive | – | – | – | – |
| CC[C@@H](CO)Nc1nc(NCc2ccc(-c3ccccn3)cc2)c2ncn(C(C)C)c2n1 [CR8] | – | – | – | – | – | – | 50 | 90 | High | some cell inhibition activity of uninfected cells |
